Key:
SF-268 = experiment: Cytotoxicity against Homo sapiens (human) SF268 cells at 100 uM after 48 hr by SRB assay relative to control; assay type: cell-based; conditions: sf-268, 48 h
Pneumocystis carinii [1] = experiment: Antimicrobial activity against Pneumocystis carinii assessed as ATP level detection by bioluminescence assay; assay type: functional, organism-based
DNA = experiment: Binding affinity to Bos taurus (calf) thymus DNA at 1:5 compound to DNA base pair ratio; assay type: nucleic-acid assay
[2] = Selectivity index, ratio of GI50 for human tumor cells to IC50 for Pneumocystis carini
[3] = Growth inhibition of Homo sapiens (human) ovarian cancer cells after 48 hr by SRB assay; assay type: cell-based; conditions: cancer cell lines
[4] = Binding affinity to Poly (dA-dT) DNA at 1:5 compound to DNA base pair ratio
MCF7 = experiment: Cytotoxicity against Homo sapiens (human) MCF7 cells at 100 uM after 48 hr by SRB assay relative to control; assay type: cell-based; conditions: mcf7, 48 h
NCI-H460 = experiment: Cytotoxicity against Homo sapiens (human) NCI-H460 cells at 100 uM after 48 hr by SRB assay relative to control; assay type: cell-based; conditions: nci-h460, 48 h
Pneumocystis carinii [5] = experiment: Ratio of pentamidine IC50 to compound IC50 for Pneumocystis carinii assessed as ATP level detection by bioluminescence assay; assay type: functional
A498 = experiment: Growth inhibition of Homo sapiens (human) A498 cells after 48 hr by SRB assay; assay type: cell-based; conditions: a498, 48 h
SN12C = experiment: Growth inhibition of Homo sapiens (human) SN12C cells after 48 hr by SRB assay; assay type: cell-based
Malme-3M = experiment: Growth inhibition of Homo sapiens (human) MALME-3M cells after 48 hr by SRB assay; assay type: cell-based
SR = experiment: Growth inhibition of Homo sapiens (human) SR cells after 48 hr by SRB assay; assay type: cell-based
CAKI-1 = experiment: Growth inhibition of Homo sapiens (human) Caki1 cells after 48 hr by SRB assay; assay type: cell-based; conditions: caki-1, 48 h

IC50 (Pneumocystis carinii [1]) [nM] | ΔTm (DNA) [°C] | ΔTm [4] [°C] | SMILES | Activity (SF-268) [%] | Selectivity Index [2] | Activity [3] | Activity (MCF7) [%] | Activity (NCI-H460) [%] | Ratio IC50 (Pneumocystis carinii [5]) | Activity (A498) | Activity (SN12C) | pGI50 (A498) | pGI50 (Malme-3M) | pGI50 (SR) | pGI50 (SN12C) | pGI50 (CAKI-1)
2600 | 14 | 23.9 | N=C(N)c1ccc(OCc2cccc(COc3ccc(C(=N)N)cc3)c2)cc1 | 0 | 3 | Non-toxic | 0 | 0 | – | – | – | – | – | – | – | –
– | 5.6 | 11.4 | N=C(N)c1ccc(NC(=O)CCCC(=O)Nc2ccc(C(=N)N)cc2)cc1 | 121 | >33333 | – | 122 | 105 | 167 | – | – | – | – | – | – | –
4500 | 15.5 | 21.3 | c1cc(N2CCCN(c3ccc(C4=NCCCN4)cc3)CC2)ccc1C1=NCCCN1 | 55 | 18 | – | 42 | 28 | – | Toxic | Toxic | – | – | – | – | –
5400 | 14.5 | 23.9 | N=C(NC1CC1)c1ccc(N2CCN(c3ccc(C(=N)NC4CC4)cc3)CC2)cc1 | 115 | >19 | – | 108 | 74 | – | – | – | – | – | – | – | –
– | 8.7 | 14.4 | N=C(N)c1ccc(NC(=O)CCCCC(=O)Nc2ccc(C(=N)N)cc2)cc1 | 52 | >50000 | – | 34 | 75 | 167 | – | – | – | – | – | – | –
3000 | 12.2 | 17.9 | c1cc(N2CCN(c3ccc(C4=NCCCN4)cc3)CC2)ccc1C1=NCCCN1 | 93 | >33 | – | 77 | 18 | – | Toxic | Toxic | – | – | – | – | –
1400 | 15.3 | 23.6 | N=C(NC1CC1)c1ccc(N2CCCN(c3ccc(C(=N)NC4CC4)cc3)CC2)cc1 | 104 | >71 | – | 87 | 71 | – | – | – | – | – | – | – | –
– | 11.6 | 20.6 | N=C(N)c1ccc(OCCCCCOc2ccc(C(=N)N)cc2)cc1 [PENTAMIDINE] | – | 20 | – | – | – | – | – | – | – | – | – | – | –
> 125000 | 0 | -0.2 | N#Cc1ccc(N2CCN(c3ccc(C#N)cc3)CC2)cc1 | 105 | – | – | 102 | 106 | – | – | – | – | – | – | – | –
357 | 11.8 | 13.3 | CCCCNC(=N)c1ccc(N2CCCN(c3ccc(C(=N)NCCCC)cc3)CC2)cc1 | 101 | 36 | – | 39 | 17 | – | – | – | 6.8 | 6.4 | 6.2 | – | –
1700 | 0.1 | -0.1 | N=C(N)c1ccc(COc2ccccc2OCc2ccc(C(=N)N)cc2)cc1 | 27 | 24 | – | 42 | 5 | – | – | – | 5.1 | – | – | 5.1 | 5.1
2000 | 15 | 23.1 | N=C(N)c1ccc(N2CCCN(c3ccc(C(=N)N)cc3)CC2)cc1 | 94 | 32 | – | 87 | 44 | – | – | – | 5.1 | – | – | 5.1 | 5.1
– | – | – | N#Cc1ccc(N2CCCN(c3ccc(C#N)cc3)CC2)cc1 | 101 | – | – | 70 | 92 | – | – | – | – | – | – | – | –

SMILES | IC50 (Pneumocystis carinii [1]) [nM] | ΔTm (DNA) [°C] | ΔTm [4] [°C] | Activity (SF-268) [%] | Selectivity Index [2] | Activity [3] | Activity (MCF7) [%] | Activity (NCI-H460) [%] | Ratio IC50 (Pneumocystis carinii [5]) | Activity (A498) | Activity (SN12C) | pGI50 (A498) | pGI50 (Malme-3M) | pGI50 (SR) | pGI50 (SN12C) | pGI50 (CAKI-1)
N=C(N)c1ccc(OC(=O)c2ccc(C(=O)Oc3ccc(C(=N)N)cc3)cc2)cc1 [BIS(4-CARBAMIMIDOYLPHENYL)TEREPHTHALATE] | – | 9.9 | 10.4 | 94 | >8 | – | 79 | 96 | – | – | – | – | – | – | – | –
